# Data taken from patent US9834542B2, “LXR modulators” (BRISTOL-MYERS SQUIBB COMPANY, priority 2013, dated 2017).
# Biological target: T1, LXRβ (Homo sapiens, UniProt P55055)
# T1 construct: Co-transfection expression plasmids, comprising full-length LXRα (pCMX-h LXRα[…] or LXRβ (pCMX-hLXRβ)); expressed in transfected cells; host or cells: CV-1 African Green Monkey Kidney Cells
# T1 sequence (P55055 1-460): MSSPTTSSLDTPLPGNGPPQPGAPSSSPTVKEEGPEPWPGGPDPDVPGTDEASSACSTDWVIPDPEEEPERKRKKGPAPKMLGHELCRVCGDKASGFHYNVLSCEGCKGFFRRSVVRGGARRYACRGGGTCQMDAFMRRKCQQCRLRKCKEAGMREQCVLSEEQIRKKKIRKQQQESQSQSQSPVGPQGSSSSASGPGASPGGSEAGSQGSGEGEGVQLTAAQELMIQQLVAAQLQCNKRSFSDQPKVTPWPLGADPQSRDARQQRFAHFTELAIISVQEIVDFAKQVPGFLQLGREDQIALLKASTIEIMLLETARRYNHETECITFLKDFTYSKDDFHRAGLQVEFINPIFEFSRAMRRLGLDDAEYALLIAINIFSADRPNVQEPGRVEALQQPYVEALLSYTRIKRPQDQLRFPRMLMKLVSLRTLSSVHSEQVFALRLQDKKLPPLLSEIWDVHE
# T1 sequence (P19793 1-462 partner): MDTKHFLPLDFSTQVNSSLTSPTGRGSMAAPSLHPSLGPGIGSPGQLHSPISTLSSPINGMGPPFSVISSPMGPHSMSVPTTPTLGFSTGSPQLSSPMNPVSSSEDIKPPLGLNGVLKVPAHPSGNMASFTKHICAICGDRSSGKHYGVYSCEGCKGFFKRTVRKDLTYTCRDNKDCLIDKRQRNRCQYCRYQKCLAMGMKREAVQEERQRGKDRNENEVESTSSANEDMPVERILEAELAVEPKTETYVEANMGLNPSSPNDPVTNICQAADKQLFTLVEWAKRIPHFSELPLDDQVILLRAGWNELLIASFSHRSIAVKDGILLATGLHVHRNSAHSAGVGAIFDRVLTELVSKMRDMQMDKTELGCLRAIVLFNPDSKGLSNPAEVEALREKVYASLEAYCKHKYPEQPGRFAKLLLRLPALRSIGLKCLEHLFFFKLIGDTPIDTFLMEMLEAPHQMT
# Experiment: Co-transfection assay (LXRE luciferase reporter), LXRβ
# Assay type: cell-based
# Details: for EC50: CV-1 cells transfected with pCMX-hLXRβ and LXREx1-Tk-Luciferase, 20 hours incubation; for Emax: LXRβ co-transfection, relative to high control 1-(2,4-difluorobenzyl)-2-oxo-6-(4-phenoxyphenyl)-4-(trifluoromethyl)-1,2-dihydropyridine-3-carbonitrile, read-out: % Efficacy
# Description: To measure the ability of compounds to activate or inhibit the transcriptional activity of LXR in a cell based assay, the co-transfection assay was used. It has been shown that LXR functions as a heterodimer with RXR. For the co-transfection assay, expression plasmids for LXRα and LXRβ are introduced separately via transient transfection into mammalian cells along with a luciferase reporter plasmid that contains one copy of a DNA sequence that is bound by LXR-RXR heterodimers (LXRE; Willy, P. et. al. 1995). LXRs heterodimerize with the endogenous RXR. Treatment of transfected cells with an LXR agonist increases the transcriptional activity of LXR, which is measured by an increase in luciferase activity.
# CV-1 African Green Monkey Kidney Cells
# Co-transfection expression plasmids, comprising full-length LXRα (pCMX-h LXRα[…] or LXRβ (pCMX-hLXRβ), reporter plasmid (LXREx1-Tk-Luciferase), and control (pCMX-Galactosidase expression vector) (Willey et al. Genes & Development 9 1033-1045 (1995)).
# CV-1 cells were prepared 24 hours prior to the experiment by plating them into T-175 flasks or 500 cm^2 dishes in order to achieve 70-80% confluency on the day of the transfection. The number of cells to be transfected was determined by the number of plates to be screened. Each well of a 384 well plate requires 1.5×10^4 cells. DNA Transfection Reagent was prepared by mixing the required plasmid DNAs with a cationic lipid transfection reagent Transit 2020 (Mirus Bio) for CV1 by following the instructions provided with the reagents. Optimal DNA amounts were determined empirically per cell line and size of vessel to be transfected. For each T175 cm^2 flask a total of 59 ug for CV1 of DNA, 133 uL Transit2020 and 4.5 mL DMEM for CV1 was mixed and added. Cells were then incubated at least 5 hours at 37° C. to prepare screening cells.
# Luciferase assay reagent (*Steady-Glo Luciferase Assay System by Promega, CAT#E2550) was prepared by combining before use:
# Assay plates were prepared by dispensing 5 μL of compound per well of a 384 well plate to achieve final compound concentration of 10 μM and no more than 0.5% DMSO. Media was removed from the screening cells, the cells trypsinized, harvested cells by centrifugation, counted, and plated at a density of approximately 1.5×10^4 cells in the 384 well assay plate prepared above in a volume of about 95 uL. Assay plates containing both compounds and screening cells (100 μL in total volume) were incubated for 20 hours at 37° C.
# After incubation with compounds, media was removed from the cells and luciferase assay reagent (50 μL/well) added. After ˜2 minutes at ambient temperature, the assay plates were read on a luminometer (PE Biosystems Northstar reader with on-board injectors, or Envision(Perkin Elmer) or equivalent).
# The LXR/LXRE co-transfection assay can be used to establish the EC50/IC50 values for potency and percent activity or inhibition for efficacy. Efficacy defines the activity of a compound relative to a high control 1-(2,4-difluorobenzyl)-2-oxo-6-(4-phenoxyphenyl)-4-(trifluoromethyl)-1,2-dihydropyridine-3-carbonitrileor a low control (DMSO/vehicle). The dose response curves are generated from a 11 point curve with concentrations differing by ½ LOG units. Each point represents the average of 2 wells of data from duplicate 384 well plate.
# The data from this assay is fitted to the following equation, from which the EC50 value may be solved: Y=Bottom+(Top−Bottom)/(1+10^((logEC50-X)*HillSlope)).
# The EC50/IC50 is therefore defined as the concentration at which an agonist or antagonist elicits a response that is halfway between the Top (maximum) and Bottom (baseline) values. The EC50/IC50 values represented are the averages of at least 2 and normally 3 independent experiments. […]
SMILES,EC50 [nM],Emax [%]
"Cc1nc(C(F)(F)F)cn1-c1ccc(-c2cccc(S(C)(=O)=O)c2)cc1-n1nncc1Cc1ccccc1OC(F)(F)F [Example 123, 1-{3′-(methylsulfonyl)-4-[2-methyl-4-(trifluoromethyl)-1H-imidazol-1-yl]biphenyl-3-yl}-5-({2-[(trifluoromethyl)oxy]phen-yl}methyl)-1H-1,2,3-triazole]",1100,36
"Cc1nc(C(=O)NC(C)(C)C)cn1-c1ccc(-c2cccc(S(C)(=O)=O)c2)cc1-n1nncc1-c1ccc(OC(F)(F)F)cc1 [Example 152, N-(1,1-dimethylethyl)-2-methyl-1-[3′-(methylsulfonyl)-3-(5-{4-[(trifluoromethyl)oxy]phenyl}-1H-1,2,3-triazol-1-yl)biphenyl-4-yl]-1H-imidazole-4-carboxamide]",1230,49
"Cc1nc(C(F)(F)F)cn1-c1ccc(-c2cc(F)c(CO)c(S(C)(=O)=O)c2)cc1-n1nncc1-c1ccc2occc2c1 [Example 216, (3′-(5-(benzofuran-5-yl)-1H-1,2,3-triazol-1-yl)-3-fluoro-4′-(2-methyl-4-(trifluoromethyl)-1H-imidazol-1-yl)-5-(methylsulfonyl)-[1,1′-biphenyl]-4-yl)methanol]",286,91
"Cc1nc(C(C)(F)F)cn1-c1ccc(-c2cc(F)c(CO)c(S(C)(=O)=O)c2)cc1-c1ocnc1-c1ccc(OC(F)(F)F)cc1 [Example 356, (4′-(4-(1,1-difluoroethyl)-2-methyl-1H-imidazol-1-yl)-3-fluoro-5-(methylsulfonyl)-3′-(4-(4-(trifluoromethoxy)phenyl)oxazol-5-yl)biphenyl-4-yl)methanol]",599,79
"Cc1nc(-c2cc(-c3cccc(S(C)(=O)=O)c3)ccc2-n2cc(C(F)(F)F)nc2C)c(-c2ccc(Cl)nc2Cl)o1 [Example 566, 5-(2,6-dichloropyridin-3-yl)-2-methyl-4-(4-(2-methyl-4-(trifluoromethyl)-1H-imidazol-1-yl)-3′-(methylsulfonyl)-[1,1′-biphenyl]-3-yl)oxazole]",227,94
"CCC(F)(F)c1cn(-c2ccc(-c3cccc(S(=O)(=O)NC)c3)cc2-n2nncc2-c2ccc(OC(F)(F)F)cc2)c(C)n1 [Example 185, 4′-[4-(1,1-difluoropropyl)-2-methyl-1H-imidazol-1-yl]-N-methyl-3′-(5-{4-[(trifluoromethyl)oxy]phenyl}-1H-1,2,3-triazol-1-yl)biphenyl-3-sulfonamide]",297,77
"Cc1nc(-c2cc(-c3cc(F)c(CO)c(S(C)(=O)=O)c3)ccc2-n2cc(C(F)(F)F)nc2C)c(-c2cncc(Cl)c2)o1 [Example 421, (3′-(5-(5-chloropyridin-3-yl)-2-methyloxazol-4-yl)-3-fluoro-4′-(2-methyl-4-(trifluoromethyl)-1H-imidazol-1-yl)-5-(methylsulfonyl)biphenyl-4-yl)methanol]",218,76
"COc1cnc(-c2oc(C)nc2-c2cc(-c3cccc(S(C)(=O)=O)c3)ccc2-n2cc(C(F)(F)F)nc2C)cn1 [Example 412, 5-(5-methoxypyrazin-2-yl)-2-methyl-4-(4-(2-methyl-4-(trifluoromethyl)-1H-imidazol-1-yl)-3′-(methylsulfonyl)biphenyl-3-yl)oxazole]",518,72

# The next compounds have a lower EC50 than those just listed; values first:
EC50 [nM],Emax [%],SMILES
111,93,"Cc1nc(-c2cc(-c3cc(F)c(CO)c(S(C)(=O)=O)c3)ccc2-n2cc(C(F)(F)F)nc2C)c(-c2ccc(Cl)nc2Cl)o1 [Example 567, (3′-(5-(2,6-dichloropyridin-3-yl)-2-methyloxazol-4-yl)-3-fluoro-4′-(2-methyl-4-(trifluoromethyl)-1H-imidazol-1-yl)-5-(methylsulfonyl)-[1,1′-biphenyl]-4-yl)methanol]"
175,78,"Cc1nc(-c2cc(-c3cccc(S(C)(=O)=O)c3)ccc2-n2cc(C(F)(F)F)nc2C)c(-c2cc(F)c(OC(F)F)c(F)c2)o1 [Example 367, (4-(difluoromethoxy)-3,5-difluorophenyl)-2-methyl-4-(4-(2-methyl-4-(trifluoromethyl)-1H-imidazol-1-yl)-3′-(methylsulfonyl)-[, 1′-biphenyl]-3-yl)oxazole]"
113,99,"Cc1nc(C(F)(F)F)cn1-c1ccc(-c2cccc(S(C)(=O)=O)c2)cc1-n1nncc1-c1ccc(N(C)C)cc1 [Example 22, N,N-dimethyl-4-(1-{3′-(methylsulfonyl)-4-[2-methyl-4-(trifluoromethyl)-1H-imidazol-1-yl]biphenyl-3-yl}-1H-1,2,3-triazol-5-yl)aniline]"
71,108,"Cc1nc(-c2cc(-c3cccc(S(C)(=O)=O)c3)ccc2-n2cc(C(F)(F)F)nc2C)c(-c2ccc(OC(F)F)cc2)o1 [Example 495, 5-(4-(difluoromethoxy)phenyl)-2-methyl-4-(4-(2-methyl-4-(trifluoromethyl)-1H-imidazol-1-yl)-3′-(methylsulfonyl)biphenyl-3-yl)oxazole]"
127,81,"Cc1nc(C(F)(F)F)cn1-c1c(F)cc(-c2cccc(S(C)(=O)=O)c2)cc1-n1nncc1-c1ccc(OC(F)(F)F)cc1 [Example 201, 1-{5-fluoro-3′-(methylsulfonyl)-4-[2-methyl-4-(trifluoromethyl)-1H-imidazol-1-yl]biphenyl-3-yl}-5-{4-[(trifluoromethyl)oxy]phenyl)-1H-1,2,3-triazole]"
48,57,"Cc1nc(-c2cc(-c3cccc(S(C)(=O)=O)c3)ccc2-n2cc(C(F)(F)F)nc2C)c(-c2ccc(Cl)cc2F)o1 [Example 484, 5-(4-chloro-2-fluorophenyl)-2-methyl-4-(4-(2-methyl-4-(trifluoromethyl)-1H-imidazol-1-yl)-3′-(methylsulfonyl)biphenyl-3-yl)oxazole]"
